Laboratory results reported in patent US8367727B2, “Method of using abscisic acid to treat diseases and disorders” (priority 2006, dated 2013).

System: MCP-1 promoter
Assay: MCP-1 promoter luciferase reporter in 3T3-L1 pre-adipocytes
Type: cell-based
Conditions: GW9662 30 μM
Procedure: 3T3-L1 cells (American Type Culture Collection, Manassas, Va.) were grown in 24-well plates in DMEM high glucose medium (Invitrogen, Carlsbad, Calif.) containing 10% fetal bovine serum (FBS) until 60-70% confluence. Before transfection, the medium was changed to 1% FBS. The cells cultured in 24-well plates were co-transfected with 0.8 μg plasmid DNA and 1 ng of pRL reporter control plasmid per well using F-1 transfection reagents (Targeting Systems, Santee, Calif.) according to the manufacturer's protocol. Transfection efficiencies were determined by cotransfecting the cells with a pcDNA™ 3.1/His/lacZ control vector at 24 h. The transfected cells were then treated with either a racemic ABA mixture (12.5 μM; Sigma) or rosiglitazone (1 μM; Cayman Chemicals, Ann Arbor, Mich.) for 24 hours. Designated wells were also treated with the PPAR γ antagonist GW9662 (30 μM; Cayman Chemicals). Transfected cells were harvested in reporter lysis reagent. Luciferase activity, normalized to pRL activity in the cell extracts was determined by using the dual luciferase reporter assay system (Promega, Madison, Wis.) in a TD-20/20 Single-Tube Luminometer (Turner Biosystems, Sunnyvale, Calif.). Relative luciferase activity (RLA) was calculated as a ratio of the chemiluminescence 10 seconds after the Luciferase Assay Reagent II (Promega) was added over the chemiluminescence 10 seconds after the Stop&Glo Reagent (Promega).
To further examine the effect of ABA on MCP-1 transactivation, 3T3-L1 preadipocytes were transfected with a MCP-1 promoter luciferase reporter construct and also cotransfected with a pCMX PPAR γ expression plasmid to increase endogenous PPAR γ activity. Cells were then treated with ABA (12.5 μM), rosiglitazone (1 μM), the PPAR γ antagonist GW9662 (30 μM), or a combination of agonist and inhibitor.

Question: For `O=C(Nc1ccccc1)c1cc([N+](=O)[O-])ccc1Cl` [GW9662, reference compound], which “inhibition of the effects of ABA and rosiglitazone on MCP-1 promoter activity” value is on record?
Answer: inhibited
